Experimental data reported in ChEMBL document CHEMBL5226391, “Valhidepsin Lipopeptides from Chromobacterium vaccinii: Structures, Biosynthesis, and Coregulation with FR900359 Production” (J Nat Prod, 2023).
Active and inactive are the calls of the source. The calls are words filed in the database; no cut-off is given here.

How the values were obtained:
A549 = experiment: Antiproliferative activity against human A549 cells assessed as reduction in cell viability at 50 uM incubated for 72 hrs by cellTiter-glo assay; type: functional, cell-based
NCI-H647 = experiment: Antiproliferative activity against human NCI-H647 cells assessed as reduction in cell viability at 50 uM incubated for 72 hrs by cellTiter-glo assay; type: functional, cell-based
Escherichia coli = experiment: Antibacterial activity against Escherichia coli ATCC 25922; type: functional, organism-based
[1] = tested on: Schizosaccharomyces pombe; experiment: Antifungal activity against Schizosaccharomyces pombe H1374; type: functional, organism-based
Pseudomonas aeruginosa = experiment: Antibacterial activity against Pseudomonas aeruginosa PA14; type: functional, organism-based
Saccharomyces cerevisiae = experiment: Antimicrobial activity against Saccharomyces cerevisiae YSD1; type: functional, organism-based
Bacillus subtilis = experiment: Antibacterial activity against Bacillus subtilis ATCC 23857; type: functional, organism-based
RERF-LC-MS = experiment: Antiproliferative activity against human RERF-LC-MS cells assessed as reduction in cell viability at 50 uM incubated for 72 hrs by cellTiter-glo assay; type: functional, cell-based
NCI-H2228 = experiment: Antiproliferative activity against human NCI-H2228 cells assessed as reduction in cell viability at 50 uM incubated for 72 hrs by cellTiter-glo assay; type: functional, cell-based
[2] = Stability of compound at pH 8.5 assessed as half life measured at 0.5 to 92 hrs by LC-UV/MS analysis; type: physicochemical; conditions: buffer, time 0.5-92 hrs
[3] = Stability of compound at pH 7.5 measured at 0.5 to 92 hrs by LC-UV/MS analysis; type: physicochemical; conditions: buffer, time 0.5-92 hrs
[4] = Stability of compound at pH 8 assessed as half life measured at 0.5 to 92 hrs by LC-UV/MS analysis; type: physicochemical; conditions: buffer, time 0.5-92 hrs
[5] = Stability of compound at pH 9 assessed as half life measured at 0.5 to 92 hrs by LC-UV/MS analysis; type: physicochemical; conditions: buffer, time 0.5-92 hrs

In the case of `CCCCCC/C=C\CC(=O)N[C@@H](CO)C(=O)N[C@@H](C(=O)N[C@@H](Cc1c[nH]cn1)C(=O)N[C@H](C(=O)N[C@H](CC(C)C)C(=O)N[C@H](C(=O)O)C(C)C)C(C)C)C(C)C`, the Activity (A549) is reported as “inactive”, the Activity (NCI-H647) is reported as “inactive” and the Activity (Escherichia coli) is reported as “inactive”. For the same molecule, the Activity [1] was “inactive”, the Activity (Pseudomonas aeruginosa) was “inactive” and the Activity (Saccharomyces cerevisiae) was “inactive”. The Activity (Bacillus subtilis) was “inactive”, the Activity (RERF-LC-MS) was “inactive” and the Activity (NCI-H2228) was “inactive”.
In the case of `CCCCCC/C=C\CC(=O)N[C@H]1COC(=O)[C@H](C(C)C)NC(=O)[C@@H](CC(C)C)NC(=O)[C@H](C(C)C)NC(=O)[C@H](Cc2c[nH]cn2)NC(=O)[C@@H](C(C)C)NC1=O`, the Activity (A549) is reported as “Active”, the Activity (NCI-H647) is reported as “Active” and the Activity (Escherichia coli) is reported as “inactive”. For the same molecule, the half-life [2] was 26 h, the Activity [1] was “Active” and the Activity (Pseudomonas aeruginosa) was “inactive”. The Activity (Saccharomyces cerevisiae) was “Active”, the Activity (Bacillus subtilis) was “Active” and the Stability [3] was “Stable”. The half-life [4] was 5 h, the Activity (RERF-LC-MS) was “Active” and the half-life [5] was 7 h. The Activity (NCI-H2228) was “Active”.
